Format in all cases: in vivo
In data set [1] the test system is laser-induced choroidal neovascularization (CNV) in the mouse. The data set can be described thus: Mouse laser-induced CNV, prevention paradigm, oral gavage. The note with it: for inhibition of CNV: oral, prevention paradigm.
For data set [2], the system named is preretinal neovascularization (NV) in the rat model of oxygen-induced retinopathy. The data set can be described thus: Rat model of oxygen-induced retinopathy (OIR), single intravitreal injection. The source says: METHODS: Pregnant Sprague-Dawley rats were received at 14 days gestation and subsequently gave birth on Day 22±1 of gestation. Immediately following parturition, pups were pooled and randomized into separate litters (n=17 pups/litter), placed into separate shoebox cages inside oxygen delivery chamber, and subjected to an oxygen-exposure profile from Day 0-14 postpartum. Litters were then placed into room air from Day 14/0 through Day 14/6 (days 14-20 postpartum). Additionally on Day 14/0, each pup was randomly assigned as an oxygen-exposed control or into various treatment groups. For those randomized into an injection treatment group: one eye received a 5 μl intravitreal injection of 0.1%, 0.3%, 0.6%, or 1% RTKi and the contralateral eye received a 5 μl intravitreal injection of vehicle. At Day 14/6 (20 days postpartum), all animals in both studies were euthanized.
(§1) Immediately following euthanasia, retinas from all rat pups were harvested, fixed in 10% neutral buffered formalin for 24 hours, subjected to ADPase staining, and fixed onto slides as whole mounts. Digital images were acquired from each retinal flat mount that was adequately prepared. Computerized image analysis was used to obtain a NV clockhour score from each readable sample. Each clockhour out of 12 total per retina was assessed for the presence or absence of preretinal NV. Statistical comparisons using median scores for NV clockhours from each treatment group were utilized in nonparametric analyses. Each noninjected pup represented one NV score by taking the average value of both eyes and was used in comparisons against each dosage group. Because the pups were randomly assigned and no difference was observed between oxygen-exposed control pups from all litters, the NV scores were combined for all treatment groups. P≦0.05 was considered statistically significant.

Data set [3] has as its system existing laser-induced choroidal neovascularization (CNV) in the mouse. The data set can be described thus: Mouse laser-induced CNV, regression of existing CNV, intravitreal injection at 7 days post-laser. The settings on record: single intravitreal injection, mouse (FIG. 4). Here is the method:
Methods. CNV was generated by laser-induced rupture of Bruch's membrane. Briefly, 4 to 5 week old male C57BL/6J mice were anesthetized using intraperitoneal administration of ketamine hydrochloride (100 mg/kg) and xylazine (5 mg/kg) and the pupils of both eyes dilated with topical ocular instillation of 1% tropicamide and 2.5% Mydfin®. One drop of topical cellulose (Gonioscopic®) was used to lubricate the cornea. A hand-held cover slip was applied to the cornea and used as a contact lens to aid visualization of the fundus. Three to four retinal burns were placed in randomly assigned eye (right or left eye for each mouse) using the Alcon 532 nm EyeLite laser with a slit lamp delivery system. The laser burns were used to generate a rupture in Bruch's membrane, which was indicated opthalmoscopically by the formation of a bubble under the retina. Only mice with laser burns that produced three bubbles per eye were included in the study. Burns were typically placed at the 3, 6, 9 or 12 o'clock positions in the posterior pole of the retina, avoiding the branch retinal arteries and veins. […]
METHODS: CNV was generated by laser-induced rupture of Bruch's membrane as described above in Example 3. […] Choroidal flat mounts were analyzed as described above in Example 3.

Data set [4] concerns diabetes-induced retinal vascular permeability. The data set can be described thus: STZ diabetic rat retinal vascular permeability (Evan's blue albumin permeation), oral gavage. The method, then: METHODS: Diabetes was induced in male Long-Evans rats with 65 mg/kg streptozotocin (STZ) after an overnight fast. Upon confirmation of diabetes (blood glucose >250 mg/dl), treatment was initiated by oral gavage. Non-diabetic (NDM) and diabetic (DM) rats received oral gavage of either vehicle or RTK inhibitor at 1.5 or 5 mg/kg/d BID. After 2 weeks, jugular vein catheters were implanted 1 day prior to experimentation for the infusion of indicator dye. Retinal vascular permeability, RVP, was measured using Evan's blue albumin permeation (45 mg/kg) after a 2 hour circulation period.

Data set [5] concerns laser-induced choroidal neovascularization (CNV) in the mouse. The data set can be described thus: Mouse laser-induced choroidal neovascularization (CNV), prevention, intravitreal injection. Here is the method:
Methods. CNV was generated by laser-induced rupture of Bruch's membrane. Briefly, 4 to 5 week old male C57BL/6J mice were anesthetized using intraperitoneal administration of ketamine hydrochloride (100 mg/kg) and xylazine (5 mg/kg) and the pupils of both eyes dilated with topical ocular instillation of 1% tropicamide and 2.5% Mydfin®. One drop of topical cellulose (Gonioscopic®) was used to lubricate the cornea. A hand-held cover slip was applied to the cornea and used as a contact lens to aid visualization of the fundus. Three to four retinal burns were placed in randomly assigned eye (right or left eye for each mouse) using the Alcon 532 nm EyeLite laser with a slit lamp delivery system. The laser burns were used to generate a rupture in Bruch's membrane, which was indicated opthalmoscopically by the formation of a bubble under the retina. Only mice with laser burns that produced three bubbles per eye were included in the study. Burns were typically placed at the 3, 6, 9 or 12 o'clock positions in the posterior pole of the retina, avoiding the branch retinal arteries and veins.
Each mouse was randomly assigned into one of the following treatment groups: noninjected controls, sham-injected controls, vehicle-injected mice, or one of three RTKi-injected groups. […]

The subject of data set [6] is preretinal neovascularization (NV) in the rat OIR model. The data set can be described thus: Rat OIR model, oral gavage. The method, then:
as §1
METHODS: Pregnant Sprague-Dawley rats were received at 14 days gestation and subsequently gave birth on Day 22±1 of gestation. Immediately following parturition, pups were pooled and randomized into separate litters (n=17 pups/litter), placed into separate shoebox cages inside oxygen delivery chamber, and subjected to an oxygen-exposure profile from Day 0 to Day 14 postpartum. Litters were then placed into room air from Day 14/0 through Day 14/6 (days 14-20 postpartum). Additionally on Day 14/0, each pup was randomly assigned as oxygen-exposed controls, vehicle treated, or drug-treated at 1.5, 5, 10 mg/kg, p.o., BID. At Day 14/6 (20 days postpartum), all animals in both studies were euthanized and retina whole mounts were prepared as described in Example 1 above.

These results are taken from US20090105245A1, “METHODS FOR TREATING MACULAR EDEMA AND OCULAR ANGIOGENESIS USING AN ANTI-INFLAMMATORY AGENT AND A RECEPTOR TYROSINE KINASE INHIBITOR” (priority 2006, published 2009).

As for `Cc1ccc(F)c(NC(=O)Nc2ccc(-c3cccc4[nH]nc(N)c34)cc2)c1` [Compound 86, N-[4-[3-amino-1H-indazol-4-yl]phenyl]-N′-(2-fluoro-5-methylphenyl)urea], the figures for the “inhibition of CNV” value in data set [1] (3 mg/kg/day) and in data set [1] (20 mg/kg/d) were “no significant inhibition” and “complete inhibition of CNV”, respectively. Besides, the “inhibition of laser-induced CNV” value is listed as “inhibits laser-induced choroidal neovascularization (CNV)” in data set [1] (oral gavage, mouse (FIG. 6)) and “inhibits laser-induced choroidal neovascularization (CNV)” in data set [5] (single intravitreal injection, mouse (FIG. 3)). Also, the “efficacy against preretinal NV” value in data set [2] (0.1% treated eyes) is on record as “Efficacy was not observed”. Further, the “inhibition of preretinal NV vs vehicle-injected and control noninjected eyes” value in data set [2] (0.3-1% RTKi) is “significant inhibition of preretinal NV”. For the same compound, the “inhibition of preretinal neovascularization (NV)” value in data set [2] (single intravitreal injection, rat OIR (FIG. 1)) is reported as “inhibits preretinal neovascularization (NV)”. Moreover, in data set [3], the “regression of existing laser-induced CNV” value was “induces regression of existing laser-induced choroidal neovascularization (CNV)”. The “blood glucose levels and body weights” value in data set [4] (DM control vs DM treatment groups) was “not different between DM control and DM treatment groups”. Besides, the “tolerability, systemic or ERG side effects” value in data set [4] (oral RTKi, NDM and DM groups) was “well tolerated by both NDM and DM groups with no observed systemic or ERG side effects”. Further, the “CNV vs vehicle injected eyes” value in data set [5] (0.3% RTKi, 5 ul intravitreal (P=0.082)) is “marginal statistical difference”. Also, the “decrease in NV” value in data set [6] (3 mg/kg/day p.o.) is recorded as “did not have a significant decrease in NV”. Besides, the “inhibition of preretinal NV vs vehicle-treated pups” value in data set [6] (10 mg/kg/day p.o.) was “significant inhibition of preretinal NV”. The “inhibition of preretinal NV” value in data set [6] (20 mg/kg/day p.o.) is “complete inhibition of preretinal NV”. Also, the “prevention of preretinal neovascularization (NV)” value in data set [6] (oral gavage, rat OIR (FIG. 2)) is on record as “prevents preretinal neoavascularization (NV)”.
